Laboratory results from patent publication US8715673B2 (priority 2011, dated 2014).
Several values for one entry are separate records, joined by “and”; a condition that tells them apart may be missing. Identical values can stand only once. Like-named read-outs stand apart in the source and are kept apart here.

Assays:
Conditions in all cases: in vivo
[1] = system: Staphylococcus aureus strain USA300 (LAC); design: species or system S. aureus
[2] = system: S. aureus strain USA300 (LAC)
[3] = system: S. aureus strain USA300 (LAC); remark: listed apart in the source
[4] = system: S. aureus strain USA300 (LAC); remark: listed apart in the source
[5] = system: Staphylococcus aureus strain USA300 (LAC); design: species or system S. aureus; remark: listed apart in the source
[6] = system: S. aureus strain USA300 (LAC); remark: listed apart in the source
[7] = system: S. aureus strain USA300 (LAC); remark: listed apart in the source
[8] = system: S. aureus strain USA300 (LAC); remark: listed apart in the source

In the case of `CC(=O)NC[C@H]1CN(c2ccc(N3CCOCC3)c(F)c2)C(=O)O1` [linezolid], the “Average area of abscess (mm^2) Day 0” value [1] is reported as 0.0 mm^2, the “Average area of abscess (mm^2) Day 1” value [1] is reported as 0.0 mm^2 and the “Average area of abscess (mm^2) Day 2” value [1] is reported as 6.6 mm^2. For the same compound, the “Average area of abscess (mm^2) Day 3” value [1] was 4.9 mm^2, the “Average area of abscess (mm^2) Day 4” value [1] was 3.7 mm^2 and the “mean area of skin abscess, day 1” value [1] was “about 0.0 mm^2”. For the same compound, the “mean area of skin abscess, day 2” value [1] was roughly 6.6 mm^2, the “mean area of skin abscess, day 3” value [1] was roughly 4.9 mm^2 and the “mean area of skin abscess, day 4” value [1] was roughly 3.7 mm^2. For the same compound, the “Cumulative survival (%) Day 1” value [2] was 100%, the “Cumulative survival (%) Day 7” value [2] was 70% and the “cumulative survival at day 7” value [2] was 70%. The “survival rate at study end” value [2] was 60%, the “Cumulative survival (%) Day 0” value [3] was 100% and the “Cumulative survival (%) Day 1” value [3] was 100%. For the same compound, the “Cumulative survival (%) Study end” value [3] was 40%, the “Cumulative survival (%) Day 0” value [4] was 100% and the “Cumulative survival (%) Day 1” value [4] was 100%. For the same compound, the “Cumulative survival (%) Day 2” value [4] was 60% and 100%, the “Cumulative survival day 1” value [4] was 100% and the “Cumulative survival day 2” value [4] was 60%. The “Cumulative survival day 3” value [4] was 20%, the “Cumulative survival day 4” value [4] was 20% and the “Cumulative survival day 5” value [4] was 20%. For the same compound, the “Median survival time” value [4] was 4 days and 2.5 days, the survival rate [4] was 90% and the “Day 4 CFU/g tissue (log10), Mean CFU/g” value [5] was 5.2 CFU/g tissue (log10). For the same compound, the “Day 4 CFU/g tissue (log10), individual mice” value [5] was 5.7 CFU/g tissue (log10) and 5.2 CFU/g tissue (log10) and 6.0 CFU/g tissue (log10) and 4.5 CFU/g tissue (log10) and 4.8 CFU/g tissue (log10) and 5.1 CFU/g tissue (log10) and 5.4 CFU/g tissue (log10) and 4.9 CFU/g tissue (log10), the “Day 4 CFU/g tissue (log10), median” value [5] was 5.1 CFU/g tissue (log10) and the “bacterial burden in the infected area, average” value [5] was “about 5.2 log 10 CFU/g”. For the same compound, the “Cumulative survival (%) Day 1” value [6] was 100%, the “Cumulative survival (%) Day 7” value [6] was 70% and the “cumulative survival at day 7” value [6] was 70%. The “survival rate at day 14 (study end)” value [6] was 70%, the “CFU/g Kidney Tissue (log10), individual mouse” value [7] was 0.00 and 5.95 and 3.77 and 3.21 and the “CFU/g Kidney Tissue (log10), mean CFU/g” value [7] was 3.23. The “CFU/g Lung Tissue (log10), individual mouse” value [7] was 3.13 and 7.64 and 4.36 and 3.55, the “CFU/g Lung Tissue (log10), mean CFU/g” value [7] was 4.67 and the “Cumulative survival (%) day 0, 2 h” value [8] was 100%. The “Cumulative survival (%) day 0, 4 h” value [8] was 100%, the “Cumulative survival (%) day 0, 8 h” value [8] was 100% and the “Cumulative survival (%) day 0, 12 h” value [8] was 100%. The “Cumulative survival (%) day 1” value [8] was 100% and 60%.
